As a reminder, the melting point is the temperature of the solid-liquid transition.

`CSCc1cc(C(C)=O)c(O)cc1OCCCCCCC#N` registered a melting point of 78 °C.

The molecule `N#Cc1ccc2c(c1)c(CCN1C(=O)c3ccccc3C1=O)cn2Cc1ccccc1` had a melting point of 182 to 184 °C.

For the molecule `Cc1noc(C)c1-c1ccncc1OC1SCC(O)C(O)C1O` (stereo unspecified), the melting point lay within 175 to 179 °C.

Molecule `Fc1ccccc1OCc1ccc2ccccc2n1` registered a melting point of 84 to 86 °C.

Molecule `CCCCN(CCCC)c1ccc(C(=O)c2ccccc2C(=O)O)cc1` registered a melting point of 171 to 172 °C.

In turn, `CNc1nnc(-c2ccc3ncn(-c4cccc(OC(F)(F)F)c4)c3c2)o1` came in with a melting point of 226 to 227 °C.

In the case of `CCN(c1ccc(C)c2cc(-c3ncc(C(C)O)s3)[nH]c12)S(=O)(=O)c1cccs1` (stereo unspecified), the melting point fell in the range of 152 to 153 °C.

`COC(=O)c1ccc2sc(C)c(Br)c2c1`: the melting point lay in the range of 84 to 85 °C.

Consider `CCCCCCCCCCCCCCCc1cccc(OC)c1`, for which the melting point is 27 to 28 °C.

Regarding `C/C(=C\c1ccc2c(c1)OCO2)C(=O)O`, the melting point came out at 205 °C.

With `CCc1cccc(-c2nc(=O)c3ccccc3s2)n1`, the melting point was in the range of 150 to 151 °C.

`CC(=O)NCc1ccc(CC(=NNc2ccc(Br)cn2)c2ccccc2)o1` displayed a melting point of 176 °C.

As for `Nc1cc(C(=O)O)cc(NCc2ccccc2)c1-c1ccccc1`, the melting point lay in the range of 179 to 181 °C.

Turning to `COCCOc1ccc2c(Nc3ccc(Cl)cc3Cl)c(C#N)cnc2c1`, the melting point was in the range of 144 to 145 °C.

On to `COc1c(C2CCN(CCCCNC(=O)c3sc(-c4ccc(Cl)cc4)nc3CO)CC2)ccc2c1CCCC2`, for which the melting point lay within 198 to 200 °C.

For the molecule `COc1ccc(CN(C)CCc2ccc(NC(=O)c3cccc4c(=O)c5cc(F)ccc5sc34)cc2)cc1OC`, the melting point was 205 °C.

Regarding `CCCCCCC(C)OS(=O)(=O)NC(=O)Nc1c(C(C)C)cccc1C(C)C` (stereo unspecified), the melting point lay within 109 to 113 °C.

The molecule `CCn1c(=O)ccc2ccccc21` came in with a melting point of 52 to 54 °C.

For the molecule `O=c1[nH]nnn1-c1ccc(OCc2ccc(F)cc2)cc1F`, the melting point was 171 to 172 °C.

`CCOc1ccc2c(c1)c(-c1ccc3c(c1)OCO3)c(C(=O)OC)c(=O)n2Cc1ccccc1OC` registered a melting point of 157 to 158 °C.

Regarding `N=C(NO)c1ccc(-c2ccc(-c3ccc(C(=N)NO)cn3)o2)nc1`, the melting point is 272 to 274 °C.

For the molecule `CCCCCCCCCCCCc1ccsc1-c1ccc2c(c1)c(=O)c1cc3c(cc12)c(=O)c1cc(-c2sccc2CCCCCCCCCCCC)ccc13`, the melting point was 152 to 153 °C.

`CC(=O)O[C@@H]1[C@H](OC(C)=O)[C@@H](C)O[C@H]1n1c(Br)nc2c(Cl)c(Cl)c(Cl)cc21` had a melting point of 160 to 162 °C.

For the molecule `Cc1cc(C)c(Nc2nc(C)ncc2S(=O)(=O)c2ccc(-c3ccncc3)cc2)c(C)c1`, the melting point was in the range of 232 to 234 °C.

Molecule `CC(C)n1c(C=O)c(-c2ccc(F)cc2)c(-c2ccc(F)cc2)c1C(=O)Nc1cccc(C(=O)N(C)C)c1` gave a melting point of 133 to 135 °C.

As to `CCOc1cc(CCNC(=O)Cn2c(C#N)ccc2-c2ccc3c(c2)C(C)(C)OC(=O)N3)ccc1OC`, the melting point was in the range of 160 to 162 °C.

On to `CC12CCC(=O)C=C1CCC1C3CC(OCC(=O)c4ccccc4)C(O)(C(=O)CO)C3(C)CC(O)C12F` (stereo unspecified), for which the melting point is 228 to 230 °C.

Molecule `O=C(Oc1ccc(O)c([N+](=O)[O-])c1)c1ccccc1` came in with a melting point of 97 °C.

Molecule `CCC1=C(C(=O)OC)C(c2ccc(C)cc2)C(C#N)=C(CC(C)(C)C)N1` (stereo unspecified) gave a melting point of 126 °C.

`COC1=Nc2c(C)ccnc2N(C2CC2)c2ncccc21` registered a melting point of 191 to 192 °C.

Take `CCCCc1nc2c(c(C)c(C)n3nnnc23)n1CC(C)(C)NS(C)(=O)=O`: the melting point lay within 75 to 90 °C.

Consider `c1ccc(-c2ccc(-c3nc(COc4ccc(CCCn5ccnc5)cc4)co3)o2)cc1`, for which the melting point was in the range of 130 to 131 °C.

Molecule `COc1ccc(Cl)cc1C(=O)NCCc1ccc(I)c(S(=O)(=O)N=CN(C)C)c1` came in with a melting point of 183 to 186 °C.

`NCc1cccc(N2C(=O)N(c3ccccc3Br)Cc3cnc(Nc4ccccc4)nc32)c1`: the melting point was determined as 121 °C.

`O=C(O)Cc1cccc(Oc2ccccc2Cl)c1O`: the melting point lay within 103 to 105 °C.

The molecule `COc1ccc(C(=O)c2ccc(-c3nc4ccccc4o3)cc2)c(O)c1` returned a melting point of 177 to 179 °C.

`CCOCc1cc2c(N=C=S)cccc2cn1` showed a melting point of 66 °C.

`N=C(N)NC1CCC(CCN2CCN(c3ccccc3)CC2)CC1` (stereo unspecified) returned a melting point of 140 to 170 °C.

`Cn1nc(C(F)(F)F)n(-c2ccc(F)cc2)c1=S` yielded a melting point of 94 to 96 °C.

In the case of `c1ccc(CNc2nc(-c3cccs3)nc3ccccc23)cc1`, the melting point lay in the range of 158 to 163 °C.

The molecule `[N-]=[N+]=Nc1ccnc2c(NC(=O)c3c(Cl)cccc3Cl)cccc12` registered a melting point of 188 to 193 °C.

In the case of `c1ccc(OC(Oc2ccccc2)Oc2c3ccccc3cc3ccccc23)cc1`, the melting point fell in the range of 90 to 92 °C.

With `N#Cc1cccc2c1nc(-c1c(F)cccc1F)n2Cc1c(F)cccc1F`, the melting point is 153 to 155 °C.

In turn, `CCCCN1CC[C@@H](CNC(=O)c2cc(Cl)c(N)c3c2OCCO3)[C@H](O)C1` (relative stereo) yielded a melting point of 122 °C.

`O=S(=O)(N=CN(CCO)CCO)c1cc(Br)cc(Br)c1` returned a melting point of 118 °C.

With `Nc1nc(NCCO)nc(-c2cc(Cl)ccc2Cl)n1`, the melting point was in the range of 198 to 199 °C.

Molecule `O=C(O)c1cccc2c1CCc1cccc(O)c1S2` showed a melting point of 171 to 173 °C.

Molecule `CC(C)(C)OC(=O)NC1CCCCCC=CC2CC2(C(=O)NS(=O)(=O)C2CC2)NC(=O)C2CC(OC(=O)c3cccc(C#N)c3)CN2C1=O` (stereo unspecified) came in with a melting point of 151 to 153 °C.

For `CNC(=O)NC1CCC(=O)c2sccc21` (stereo unspecified), the melting point was 212 to 215 °C.

`COc1cccc(-c2ccc3c(c2)c(C(=O)C(=O)O)cn3Cc2ccc(C(C)(C)C)cc2)c1`: the melting point lay in the range of 86 to 87 °C.

In turn, `CCCC[C@H](NC(=O)OC(C)(C)C)C(=O)CCCc1cccs1` registered a melting point of 50.5 to 52.5 °C.

`CCOC(=O)/C=C/c1ccc(C(C)(C)C)c([N+](=O)[O-])c1` showed a melting point of 77 to 78 °C.

In the case of `O=c1oc2ccccc2c(O)c1C1CC(c2ccc(OCc3ccc(-c4ccc(-c5ccccc5)cc4)cc3)cc2)Cc2ccccc21` (stereo unspecified), the melting point is 245 to 248 °C.

In turn, `O=C1c2cccc([N+](=O)[O-])c2C2CC3(CCN12)SCCS3` (stereo unspecified) had a melting point of 185 °C.

`O=C1NC(Cc2ccc([N+](=O)[O-])c(OCc3ccccc3)c2)C(=O)Nc2ccccc21` (stereo unspecified): the melting point fell in the range of 243 to 245 °C.

`CC1CC2C3C=C(Cl)C4=CC(=O)CCC4(C)C3C(O)CC2(C)C1C(=O)CO` (stereo unspecified) showed a melting point of 229 °C.

Consider `CC1=C(C(=O)N(C)C)C(c2ccccc2)C(C(N)=O)=C(N)N1` (stereo unspecified), for which the melting point was found to be 236 °C.

As to `CC(N)Cc1ncc(O)c(C(=O)c2ccccc2)c1C(=O)c1ccccc1` (stereo unspecified), the melting point is 110 to 112 °C.

On to `CN(C(=O)c1ccnc(Cl)c1)c1ccccc1N1CCN(C(=O)OC(C)(C)C)CC1`, for which the melting point lay within 59 to 61 °C.

As for `CN(C)C(=O)n1nc(C(C)(C)C)cc1S(C)=O` (stereo unspecified), the melting point lay within 95 to 96 °C.

Regarding `Cc1ccc(CC(C)NCC(O)c2cc3ccccc3o2)cc1` (stereo unspecified), the melting point was in the range of 88 to 100 °C.

On to `CO/N=C(\C(=O)N[C@@H]1C(=O)N[C@@H]1COC(=O)/C(=N\OC)c1csc(NC(=O)CCl)n1)c1csc(NC(=O)CCl)n1` (relative stereo), for which the melting point fell in the range of 157 to 159 °C.

Molecule `C#CCCCCOc1ccc(C=O)cc1OC` showed a melting point of 67 to 68 °C.

Regarding `CC(=O)Oc1cc2c(s1)CCN(C(C(=O)C1CC1)c1ccccc1F)C2` (stereo unspecified), the melting point is 120 to 122 °C.

`O=[N+]([O-])c1cnccc1Oc1ccc(Cl)cc1` returned a melting point of 93 to 94 °C.

`CN1C(=O)C2CC2(c2ccc([N+](=O)[O-])cc2)C1=O` (stereo unspecified) had a melting point of 148 to 150 °C.

`COc1cc(CCCCCCCO)ccc1OCc1nc(-c2ccccc2)oc1C` displayed a melting point of 78 to 79 °C.

`C(=CCN(C1CCCCC1)C1CCCCC1)CN(C1CCCCC1)C1CCCCC1` yielded a melting point of 136 to 138 °C.

The molecule `CCC(=O)Nc1cccc(NC(=O)C(C)C)c1` gave a melting point of 174 to 175 °C.

Molecule `CCOP(=O)(OCC)c1cccc(C)c1I` showed a melting point of 56 to 58 °C.

`S=c1sc2ccccc2n1CNc1ccccc1` yielded a melting point of 102 to 103 °C.

On to `O=C(NCCO)c1cccc(-c2ccc3c(n2)N(Cc2ccc(Cl)cc2Cl)CC3)c1`, for which the melting point lay in the range of 142 to 143 °C.

`CCOC(=O)CN1C(=O)C(C(C)C)N(C(C)=O)C=C1c1ccccc1` (racemic) showed a melting point of 96 to 98 °C.

For `N#Cc1cc(C(F)(F)F)cc(C(=O)Nc2ccc(Cl)c(Cl)c2)c1N1CCCCC1`, the melting point worked out at 175 °C.

For the molecule `BrCCCCCCCOc1ccc2c(c1)OCO2`, the melting point is 45 to 47 °C.

`CCOC(=O)c1c(SCOC)nc2c(F)c(F)c(F)cc2c1O` registered a melting point of 91 to 94 °C.

For `CC(C)(C=NO)C1CCN(CC#Cc2cc(C(F)(F)F)cc(C(F)(F)F)c2)CC1`, the melting point is 63 to 65 °C.

In turn, `N#Cc1c[nH]cc1-c1ccc(Cl)cc1C(=O)c1ccccc1F` gave a melting point of 177 to 179 °C.

In turn, `c1ccc(Cc2nc(C3CCCCC3)oc2CN2CCc3c([nH]c4ccccc34)C2)cc1` came in with a melting point of 200 to 201 °C.

With `CCOc1nc2ccccc2nc1N(CC)C(=O)N1CCN(c2cc(OC)cc(OC)c2)CC1`, the melting point is 144 to 146 °C.

Consider `CCC1(CC)c2ccc(C)cc2C(CC)(CC)N1OC(C)=O`, for which the melting point lay within 76 to 78 °C.

For the molecule `CC(C)c1ccc(-c2csc(-c3ccc(C(=O)O)cc3)n2)cc1`, the melting point was 257 to 258 °C.

Consider `CCOC(=O)CCC(C)Oc1ccc2c(c1)C(N(CC)S(C)(=O)=O)CC(C)(C)O2` (stereo unspecified), for which the melting point was 65 to 67 °C.

In turn, `CCOC(=O)c1cc2c(C)ccc3c2n1CCO3` came in with a melting point of 101 to 102 °C.

Take `CC(C)Cn1cccc1C(=O)C(C#N)C(=O)Nc1ccccc1` (stereo unspecified): the melting point lay in the range of 134 to 136 °C.

`COc1ccc(CCC(=O)Nc2c(C)c(C)c3c(c2C)[C@@H](c2ccc(C)cc2)C(C)(C)O3)cc1`: the melting point was in the range of 170 to 172 °C.

The values are drawn from a melting point compilation (Tetko et al.; mined from patent text by program, amines drawn as free bases though some values may be those of a salt).
